Reference: patent US10662229B2, “Spider venom peptides and methods of use for modulating sodium channels” (priority 2016, dated 2020)
Where a SMILES comes first, the peptide text is derived from it. Bridges are numbered along the chain shown (N, C = ends). [ ]: non-standard residue; d: D form. Nle = CCCC[C@H](N)C(=O)O

Tests used:
Type in all cases: cell-based
[1] = target: T1, hNav1.6 (Homo sapiens, UniProt Q9UQD0); experiment: FLIPR membrane potential assay, hNav1.6; conditions: for Selectivity for Nav1.7, Nav subtype 1.6: membrane potential assay
T1 construct: host or cells: HEK293
T1 sequence (Q9UQD0 whole entry): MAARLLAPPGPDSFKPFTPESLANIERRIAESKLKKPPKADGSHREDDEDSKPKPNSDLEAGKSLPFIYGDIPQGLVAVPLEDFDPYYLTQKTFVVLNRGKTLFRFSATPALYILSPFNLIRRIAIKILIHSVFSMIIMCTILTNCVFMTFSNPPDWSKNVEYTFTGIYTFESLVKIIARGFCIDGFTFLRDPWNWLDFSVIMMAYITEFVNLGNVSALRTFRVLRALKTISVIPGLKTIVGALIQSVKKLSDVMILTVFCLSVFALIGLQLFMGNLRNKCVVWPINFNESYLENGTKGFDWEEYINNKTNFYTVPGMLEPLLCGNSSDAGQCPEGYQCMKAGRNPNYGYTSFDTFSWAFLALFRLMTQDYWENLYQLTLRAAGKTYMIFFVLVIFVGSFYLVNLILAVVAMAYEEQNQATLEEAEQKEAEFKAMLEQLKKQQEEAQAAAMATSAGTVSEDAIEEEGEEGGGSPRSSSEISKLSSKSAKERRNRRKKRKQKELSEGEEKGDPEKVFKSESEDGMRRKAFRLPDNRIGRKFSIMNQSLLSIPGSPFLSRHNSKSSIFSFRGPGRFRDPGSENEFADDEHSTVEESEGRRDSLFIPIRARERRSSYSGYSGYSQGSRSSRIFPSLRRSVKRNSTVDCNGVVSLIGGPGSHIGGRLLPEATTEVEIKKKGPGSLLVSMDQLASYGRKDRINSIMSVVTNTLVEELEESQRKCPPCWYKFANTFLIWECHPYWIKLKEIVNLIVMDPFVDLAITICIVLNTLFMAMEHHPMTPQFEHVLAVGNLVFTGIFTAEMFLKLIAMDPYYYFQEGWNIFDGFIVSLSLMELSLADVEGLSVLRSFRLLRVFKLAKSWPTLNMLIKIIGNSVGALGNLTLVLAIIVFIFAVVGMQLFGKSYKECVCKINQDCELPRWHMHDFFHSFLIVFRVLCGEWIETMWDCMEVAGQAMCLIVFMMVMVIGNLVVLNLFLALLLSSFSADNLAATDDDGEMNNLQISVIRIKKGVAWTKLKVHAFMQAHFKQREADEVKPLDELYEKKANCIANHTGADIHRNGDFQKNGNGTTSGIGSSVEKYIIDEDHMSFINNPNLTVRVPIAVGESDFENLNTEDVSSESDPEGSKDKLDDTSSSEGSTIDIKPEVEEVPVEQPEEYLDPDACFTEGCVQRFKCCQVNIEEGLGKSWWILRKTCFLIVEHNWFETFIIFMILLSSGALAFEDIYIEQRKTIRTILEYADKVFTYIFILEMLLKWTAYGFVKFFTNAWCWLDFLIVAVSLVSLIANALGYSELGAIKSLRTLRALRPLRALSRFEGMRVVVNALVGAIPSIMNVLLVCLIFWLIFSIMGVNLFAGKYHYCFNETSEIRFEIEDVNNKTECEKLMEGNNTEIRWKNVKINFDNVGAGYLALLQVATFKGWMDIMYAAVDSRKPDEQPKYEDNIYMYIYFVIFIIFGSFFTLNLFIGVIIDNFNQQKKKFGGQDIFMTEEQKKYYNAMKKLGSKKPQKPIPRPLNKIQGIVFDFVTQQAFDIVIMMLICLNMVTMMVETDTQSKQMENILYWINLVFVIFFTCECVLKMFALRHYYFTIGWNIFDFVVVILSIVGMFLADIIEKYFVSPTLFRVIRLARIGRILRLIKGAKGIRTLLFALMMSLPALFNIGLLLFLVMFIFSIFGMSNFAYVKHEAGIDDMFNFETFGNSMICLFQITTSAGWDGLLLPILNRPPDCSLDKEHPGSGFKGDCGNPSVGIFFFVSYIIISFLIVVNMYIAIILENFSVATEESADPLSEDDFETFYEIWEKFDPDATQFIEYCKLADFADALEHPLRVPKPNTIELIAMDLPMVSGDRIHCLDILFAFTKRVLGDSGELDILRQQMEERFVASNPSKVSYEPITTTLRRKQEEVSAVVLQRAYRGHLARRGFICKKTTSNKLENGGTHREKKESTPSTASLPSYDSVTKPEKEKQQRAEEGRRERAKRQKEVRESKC
Method: (§1) HEK293 cells stably expressing hNav1.1, hNav1.2, hNav1.3, hNav1.4, hNav1.5, hNav1.6, hNav1.7 and […] (SB Drug Discovery, Glasgow, UK) were cultured in minimum essential media (MEM) containing 10% v/v FBS supplemented with L-glutamine (2 mM) and selection antibiotics G-418 (0.5 mg/mL), blasticidin (2-4 μg/mL) and zeocin (0.5 mg/mL) as recommended by the manufacturer. CHO cells stably expressing hNav1.8 in a tetracycline-inducible system (Chantest, OH, USA) were cultured in Ham's F-12 containing 10% v/v FBS and selection antibiotics as recommended by the manufacturer. To induce hNav1.8 expression, cells were cultured in the presence of tetracycline (1 μg/mL) for 24 h at 27° C. Cells were grown in a humidified 5% CO2 incubator at 37° C., grown to 70-80% confluence, and passaged every 3-4 days using TrypLE Express (Invitrogen).
(§2) Cells were plated 48 h before the assay on 384-well black walled imaging plates at a density of 10,000 to 15,000 cells per well and were loaded with red membrane potential dye for 30 min at 37° C. (Molecular Devices, CA, USA). One vial of bulk red membrane potential dye was reconstituted to a 10× stock solution with PSS and stored at −20° C. and diluted to 1× solution with PSS on the day of the assay. […] Changes in membrane potential were assessed using the FLIPR^TETRA (excitation 515 to 545 nm, emission 565 to 625 nm) every second for 300 s after adding agonists.

[2] = target: T2, hNav1.8 (Homo sapiens, UniProt Q9Y5Y9); experiment: FLIPR membrane potential assay, hNav1.8; conditions: for Selectivity for Nav1.7, Nav subtype 1.8: membrane potential assay
T2 construct: host or cells: HEK293
Method: as §1, §2

[3] = target: T3, hNav1.2 (Homo sapiens, UniProt Q99250); experiment: FLIPR membrane potential assay, hNav1.2; conditions: for Selectivity for Nav1.7, Nav subtype 1.2: membrane potential assay
T3 construct: host or cells: HEK293
Method: as §1, §2

[4] = target: T4, hNav1.1 (Homo sapiens, UniProt P35498); experiment: FLIPR membrane potential assay, hNav1.1; conditions: for Selectivity for Nav1.7, Nav subtype 1.1: membrane potential assay
T4 construct: host or cells: HEK293
Method: as §1, §2

[5] = target: T5, hNav1.4 (Homo sapiens, UniProt P35499); experiment: FLIPR membrane potential assay, hNav1.4; conditions: for Selectivity for Nav1.7, Nav subtype 1.4: membrane potential assay
T5 construct: host or cells: HEK293
T5 sequence (P35499 whole entry): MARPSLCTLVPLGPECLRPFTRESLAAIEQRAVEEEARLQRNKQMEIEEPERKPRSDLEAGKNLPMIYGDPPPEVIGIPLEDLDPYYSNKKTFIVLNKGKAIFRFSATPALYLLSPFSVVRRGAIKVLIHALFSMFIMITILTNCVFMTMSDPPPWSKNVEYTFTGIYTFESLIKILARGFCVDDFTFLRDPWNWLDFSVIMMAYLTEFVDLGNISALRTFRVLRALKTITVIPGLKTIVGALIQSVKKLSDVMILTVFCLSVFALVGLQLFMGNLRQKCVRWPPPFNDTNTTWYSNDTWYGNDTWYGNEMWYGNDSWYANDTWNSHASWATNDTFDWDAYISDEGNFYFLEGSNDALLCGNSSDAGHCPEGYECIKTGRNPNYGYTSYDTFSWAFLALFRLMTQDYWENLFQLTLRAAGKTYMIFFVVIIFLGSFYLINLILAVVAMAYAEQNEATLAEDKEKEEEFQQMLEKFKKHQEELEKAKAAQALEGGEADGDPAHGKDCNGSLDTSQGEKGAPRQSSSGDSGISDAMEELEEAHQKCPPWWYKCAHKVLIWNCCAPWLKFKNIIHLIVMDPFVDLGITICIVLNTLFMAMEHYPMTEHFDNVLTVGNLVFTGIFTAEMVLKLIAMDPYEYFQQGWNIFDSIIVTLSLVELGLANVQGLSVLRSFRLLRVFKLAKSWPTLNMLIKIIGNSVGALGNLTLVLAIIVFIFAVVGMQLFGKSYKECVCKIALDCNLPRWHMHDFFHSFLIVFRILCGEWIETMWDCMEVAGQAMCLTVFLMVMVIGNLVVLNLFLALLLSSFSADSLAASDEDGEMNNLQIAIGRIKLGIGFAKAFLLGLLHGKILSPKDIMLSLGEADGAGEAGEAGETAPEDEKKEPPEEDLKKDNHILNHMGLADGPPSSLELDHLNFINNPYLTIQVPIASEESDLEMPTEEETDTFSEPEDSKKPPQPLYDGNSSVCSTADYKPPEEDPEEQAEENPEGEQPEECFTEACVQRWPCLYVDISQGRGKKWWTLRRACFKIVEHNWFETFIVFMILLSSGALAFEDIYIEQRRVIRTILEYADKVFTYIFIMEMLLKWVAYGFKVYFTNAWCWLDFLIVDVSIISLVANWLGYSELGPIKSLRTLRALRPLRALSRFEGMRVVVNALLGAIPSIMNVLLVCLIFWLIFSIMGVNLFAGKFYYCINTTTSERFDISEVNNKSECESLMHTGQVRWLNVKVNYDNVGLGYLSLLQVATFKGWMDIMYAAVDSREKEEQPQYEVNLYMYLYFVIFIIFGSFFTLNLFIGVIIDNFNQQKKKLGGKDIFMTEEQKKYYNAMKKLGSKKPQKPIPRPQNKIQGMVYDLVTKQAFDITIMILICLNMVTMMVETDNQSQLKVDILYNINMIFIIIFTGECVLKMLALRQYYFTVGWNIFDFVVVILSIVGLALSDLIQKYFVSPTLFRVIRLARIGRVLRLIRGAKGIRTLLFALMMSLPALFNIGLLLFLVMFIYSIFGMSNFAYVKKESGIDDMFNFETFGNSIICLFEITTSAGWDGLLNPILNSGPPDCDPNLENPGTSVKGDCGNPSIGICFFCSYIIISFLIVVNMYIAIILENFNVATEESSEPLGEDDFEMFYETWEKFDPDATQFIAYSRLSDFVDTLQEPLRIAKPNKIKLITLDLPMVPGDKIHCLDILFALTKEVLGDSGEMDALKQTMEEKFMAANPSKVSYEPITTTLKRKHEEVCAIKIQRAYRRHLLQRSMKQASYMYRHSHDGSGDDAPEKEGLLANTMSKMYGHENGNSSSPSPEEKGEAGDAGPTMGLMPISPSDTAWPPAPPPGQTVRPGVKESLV
Method: as §1, §2

[6] = target: T6, hNav1.7 (Homo sapiens, UniProt Q15858); experiment: FLIPR membrane potential assay, hNav1.7; conditions: for Selectivity for Nav1.7, Nav subtype 1.7: membrane potential assay, reference subtype
T6 construct: host or cells: HEK293
Method: as §1, §2

[7] = target: T7, hNav1.5 (Homo sapiens, UniProt Q14524); experiment: FLIPR membrane potential assay, hNav1.5; conditions: for Selectivity for Nav1.7, Nav subtype 1.5: membrane potential assay
T7 construct: host or cells: HEK293
Method: as §1, §2

[8] = target: T8, hNav1.3 (Homo sapiens, UniProt Q9NY46); experiment: FLIPR membrane potential assay, hNav1.3; conditions: for Selectivity for Nav1.7, Nav subtype 1.3: membrane potential assay
T8 construct: host or cells: HEK293
Method: as §1, §2

SMILES: CSCC[C@@H]1NC(=O)[C@H](Cc2ccc(O)cc2)NC(=O)[C@H](CCCNC(=N)N)NC(=O)[C@@H](NC(=O)[C@H](CC(=O)O)NC(=O)[C@@H](N)CO)CSSC[C@@H]2NC(=O)[C@@H]3CSSC[C@@H](C(=O)N[C@@H](C)C(=O)N[C@@H](Cc4c[nH]c5ccccc45)C(=O)N[C@@H](CC(=O)O)C(=O)N[C@@H](Cc4ccccc4)C(=O)N[C@H](C(=O)N[C@@H](Cc4ccccc4)C(=O)N[C@H](C(=O)O)[C@@H](C)O)[C@@H](C)O)NC(=O)[C@H](Cc4ccc(O)cc4)NC(=O)[C@H](CCCCN)NC(=O)[C@H](CCSC)NC(=O)[C@H](CCCCN)NC(=O)[C@H](CCCNC(=N)N)NC(=O)[C@H](CCCCN)NC(=O)[C@H](CSSC[C@H](NC(=O)[C@H](CC(=O)O)NC(=O)CNC(=O)[C@H](Cc4ccccc4)NC1=O)C(=O)N[C@@H](CCC(=O)O)C(=O)N[C@@H](CCCCN)C(=O)N[C@@H](CC(=O)O)C(=O)N[C@@H](CCC(=O)O)C(=O)N[C@@H](CC(=O)O)C(=O)N3)NC(=O)CNC(=O)[C@H](CC(C)C)NC(=O)[C@H](Cc1c[nH]cn1)NC(=O)[C@H](CCCCN)NC2=O [S0-Pnc1a] (H-SDCRYMFGDCEKDEDCCKHLGCKRKMKYCAWDFTFT-OH; disulfide 3-17, 10-22, 16-29)
- IC50 [1]: 19 µM
- Selectivity for Nav1.7, Nav subtype 1.6 [1]: 68
- IC50 [2]: > 30 µM
- Selectivity for Nav1.7, Nav subtype 1.8 [2]: >107
- IC50 [3]: 3 µM
- Selectivity for Nav1.7, Nav subtype 1.2 [3]: 10
- IC50 [4]: 9 µM
- Selectivity for Nav1.7, Nav subtype 1.1 [4]: 32
- IC50 [5]: 11 µM
- Selectivity for Nav1.7, Nav subtype 1.4 [5]: 40
- IC50 [6]: 0.282 µM
- Selectivity for Nav1.7, Nav subtype 1.7 [6]: 1
- IC50 [7]: > 30 µM
- Selectivity for Nav1.7, Nav subtype 1.5 [7]: >107
- IC50 [8]: 6 µM
- Selectivity for Nav1.7, Nav subtype 1.3 [8]: 22

SMILES: CCCC[C@@H]1NC(=O)[C@H](Cc2ccc(O)cc2)NC(=O)[C@H](CCCNC(=N)N)NC(=O)[C@@H](NC(=O)[C@@H](N)CC(=O)O)CSSC[C@@H]2NC(=O)[C@@H]3CSSC[C@@H](C(=O)N[C@@H](C)C(=O)N[C@@H](Cc4c[nH]c5ccccc45)C(=O)N[C@@H](CC(=O)O)C(=O)N[C@@H](Cc4ccccc4)C(=O)N[C@H](C(=O)N[C@@H](Cc4ccccc4)C(=O)N[C@H](C(=O)O)[C@@H](C)O)[C@@H](C)O)NC(=O)[C@H](Cc4ccc(O)cc4)NC(=O)[C@H](CCCCN)NC(=O)[C@H](CCCC)NC(=O)[C@H](CCCCN)NC(=O)[C@H](CCCNC(=N)N)NC(=O)[C@H](CCCCN)NC(=O)[C@H](CSSC[C@H](NC(=O)[C@H](CC(=O)O)NC(=O)CNC(=O)[C@H](Cc4ccccc4)NC1=O)C(=O)N[C@@H](CCC(=O)O)C(=O)N[C@@H](CCCCN)C(=O)N[C@@H](CC(=O)O)C(=O)N[C@@H](CCC(=O)O)C(=O)N[C@@H](CC(=O)O)C(=O)N3)NC(=O)CNC(=O)[C@H](CC(C)C)NC(=O)[C@H](Cc1c[nH]cn1)NC(=O)[C@H](CCCCN)NC2=O [[M5,25Nle]Pnc1a] (H-DCRY[Nle]FGDCEKDEDCCKHLGCKRK[Nle]KYCAWDFTFT-OH; disulfide 2-16, 9-21, 15-28)
- IC50 [1]: 5 µM
- Selectivity for Nav1.7, Nav subtype 1.6 [1]: 41
- IC50 [2]: > 30 µM
- Selectivity for Nav1.7, Nav subtype 1.8 [2]: >260
- IC50 [3]: 0.773 µM
- Selectivity for Nav1.7, Nav subtype 1.2 [3]: 7
- IC50 [4]: 2 µM
- Selectivity for Nav1.7, Nav subtype 1.1 [4]: 17
- IC50 [5]: 3 µM
- Selectivity for Nav1.7, Nav subtype 1.4 [5]: 22
- IC50 [6]: 0.116 µM
- Selectivity for Nav1.7, Nav subtype 1.7 [6]: 1
- IC50 [7]: > 30 µM
- Selectivity for Nav1.7, Nav subtype 1.5 [7]: >260
- IC50 [8]: 1 µM
- Selectivity for Nav1.7, Nav subtype 1.3 [8]: 10

SMILES: CSCC[C@@H]1NC(=O)[C@H](Cc2ccc(O)cc2)NC(=O)[C@H](CCCNC(=N)N)NC(=O)[C@@H](NC(=O)[C@@H](N)CC(=O)O)CSSC[C@@H]2NC(=O)[C@@H]3CSSC[C@@H](C(=O)N[C@@H](C)C(=O)N[C@@H](Cc4c[nH]c5ccccc45)C(=O)N[C@@H](CC(=O)O)C(=O)N[C@@H](Cc4ccccc4)C(=O)N[C@H](C(=O)N[C@@H](Cc4ccccc4)C(=O)N[C@H](C(=O)O)[C@@H](C)O)[C@@H](C)O)NC(=O)[C@H](Cc4ccc(O)cc4)NC(=O)[C@H](CCCCN)NC(=O)[C@H](CCSC)NC(=O)[C@H](CCCCN)NC(=O)[C@H](CCCNC(=N)N)NC(=O)[C@H](CCCCN)NC(=O)[C@H](CSSC[C@H](NC(=O)[C@H](CC(=O)O)NC(=O)CNC(=O)[C@H](Cc4ccccc4)NC1=O)C(=O)N[C@@H](CCC(=O)O)C(=O)N[C@@H](CCCCN)C(=O)N[C@@H](CC(=O)O)C(=O)N[C@@H](C)C(=O)N[C@@H](CC(=O)O)C(=O)N3)NC(=O)CNC(=O)[C@H](CC(C)C)NC(=O)[C@H](Cc1c[nH]cn1)NC(=O)[C@H](CCCCN)NC2=O [[E13A]Pnc1a] (H-DCRYMFGDCEKDADCCKHLGCKRKMKYCAWDFTFT-OH; disulfide 2-16, 9-21, 15-28)
- IC50 [1]: 8 µM
- Selectivity for Nav1.7, Nav subtype 1.6 [1]: 61
- IC50 [2]: > 30 µM
- Selectivity for Nav1.7, Nav subtype 1.8 [2]: >217
- IC50 [3]: 0.566 µM
- Selectivity for Nav1.7, Nav subtype 1.2 [3]: 4
- IC50 [4]: 4 µM
- Selectivity for Nav1.7, Nav subtype 1.1 [4]: 29
- IC50 [5]: 5 µM
- Selectivity for Nav1.7, Nav subtype 1.4 [5]: 36
- IC50 [6]: 0.139 µM
- Selectivity for Nav1.7, Nav subtype 1.7 [6]: 1
- IC50 [7]: > 30 µM
- Selectivity for Nav1.7, Nav subtype 1.5 [7]: >217
- IC50 [8]: 2 µM
- Selectivity for Nav1.7, Nav subtype 1.3 [8]: 18
